Results reported in patent US8476454B2, “IDO inhibitors and methods of use” (Lankenau Institute for Medical Research, priority 2003, dated 2013).

Experiments:
[1] = test system: established tumors in MMTVneu "oncomouse" model; assay: MMTVneu transgenic oncomouse model of breast cancer, change in tumor volume over two weeks; assay type: in vivo, mouse; conditions: for effect on tumor growth: two week course, 1MT 20 mg/day s.c. time-release pellets, cytotoxics i.v. at maximum-tolerated doses
Excerpt: The MMTVneu transgenic “oncomouse” model of breast cancer was used to measure the effects of IDO inhibitors and STIs on tumor pathophysiology. The MMTVneu transgenic mouse develops aggressive tumors of the mammary gland that resemble poorly differentiated human ductal carcinomas. In the MMTVneu mouse model, breast cancer is initiated by tissue-specific expression of a mutant form of the HER-2/Neu gene that is activated frequently in aggressive human breast ductal carcinomas. HER-2 is a member of the EGF-R family of cell surface growth factor receptors. Myc is an obligate downstream effector for HER-2/Neu to drive cancer. Female MMTVneu “oncomice” are mated twice to initiate expression from the mouse mammary tumor virus (wry) promoter which drives transcription of the Neu/HER2 oncogene in mammary tissue. Mammary tumors arise with a penetrance of >90% in this model system by 5 months of age. MMTVneu “oncomice” bearing similarly sized tumors of ˜150 mm^3 were randomly assigned to control or experimental treatment groups. Control mice were implanted with placebo time-release pellets (Innovative Research, Inc., Sarasota, Fla.).
The time-release pellets are composed of a copolymer which is inert and gradually dissolves and breaks down to a non-toxic substance that remains largely localized during the course of the experiment. […] Two pellets per mouse were implanted to deliver a total dose of 20 mg/day. Therefore, for a 25 g mouse the total dose is 800 mg/kg/day or 280 mg over a 14 day period.
Time-release pellets were introduced subcutaneously on the backs of mice anesthetized by intramuscular injection of ketamin/rompun. Blunt dissection with a hemostat is used to separate the skin from the underlying muscle to create a subcutaneous pocket. One or two biodegradable slow release pellets were implanted within this pocket, rather than directly under the incision in order to prevent mechanical stress and wound dehiscence. The incision was then closed with wound clips.
MMTVneu “oncomice” bearing similarly sized tumors of ˜150 mm^3 were randomly assigned to control or experimental treatment groups. Control mice were implanted with placebo time-release pellets (Innovative Research, Inc., Sarasota, Fla.).
The cytotoxic chemotherapeutic agents were prepared and delivered to the mice as follows. Paclitaxel was dissolved in equal volumes of absolute ethanol and the clinically-used solubilizing agent Cremophor® EL. The solution was sonicated up to 30 minutes and stored as a 20 mg/ml stock solution at 4° C. for up to one week. Before use, this solution was diluted further at 1:5 with sterile physiological saline. Paclitaxel formulated in this manner was administered to mice by a single bolus intravenous (i.v.) injection into the tail vein. Mouse tails can be warmed to facilitate identification and injection of the vein. […] The MTD of cisplatin (1 mg/kg) was obtained as a clinical preparation in saline and delivered as a bolus i.v. injection on the same schedule. Control treated mice received only the Cremophor° EL vehicle formulation without paclitaxel.
Statistical analysis of the tumors of MMTVneu mice after various treatments. Numbers are provided as percent change in tumor volume as compared to the tumor volume prior to treatment.

human IDO [2] = target: T1, human IDO (Homo sapiens, UniProt P14902); assay: IDO enzyme assay (kynurenine production), enzyme kinetics for Ki; assay type: biochemical
Experimental: Data were plotted and analyzed using the Prism4 software package (GraphPad).
This assay is also used to determine Ki values for specific compounds, which is important for the development of SAR (structure activity relationship) around the different compound series.
Kynurenine production can be measured at 1 hour. More extensive enzyme kinetic data can be collected for selected compounds of interest.

intracellular IDO = target: T2, intracellular IDO (Homo sapiens, UniProt P14902); assay: cell-based IDO inhibitor assay, COS-1 cells transiently transfected with IDO cDNA, dose escalation
T2 construct: expressed in transfected cells; host or cells: COS-1 cells, CMV promoter-driven plasmid, Lipofectamine 2000
Experimental: COS-1 cells are transiently transfected with a CMV promoter-driven plasmid expressing IDO cDNA using Lipofectamine 2000 (Invitrogen) as recommended by the manufacturer. […] The following day the wells are washed and new media (phenol red free) containing 20 μg/ml tryptophan is added together with inhibitor.

human IDO [3] = target: T1, human IDO; assay: cell-based screen, 293/Phoenix cells transiently transfected with human IDO, kynurenine in media
[4] = target: T3, tryptophan 2,3-dioxygenase (TDO2) (Homo sapiens, UniProt P48775); assay: cell-based screen, 293/Phoenix cells transiently transfected with TDO (selectivity); conditions: IDO versus TDO2
T3 construct: expressed in transfected cells; host or cells: human 293/Phoenix cells
Experimental: FIGS. 27A-27C provide a chart of certain IDO inhibitors, their structures, and their ability to inhibit IDO and TDO activity at a concentration of 250 μM in a cell-based assay.
The candidate compounds were also screened in a cell-based assay (for similar assay see Munn et al. (1999) J. Exp. Med. 189:1363-1372). Briefly, human 293/Phoenix cells were transiently transfected with human IDO or TDO cDNA expression vectors. The candidate compounds were added to the transfected cells at various concentrations. Kynurenine was quantitated in tissue culture media using a fluorescence-based protocol.

IDO = conditions: cited from earlier work; for potency ranking as IDO inhibitor (literature): Peterson et al. 1993, 1994
[5] = HPLC analysis of mouse serum for compound level; assay type: in vivo; conditions: 2×140 mg 1MT pellets implanted subcutaneously, 3 days, male FVB mice
Excerpt: Protein was removed by TCA precipitation.

allogenic conceptus = assay: allogeneic conceptus rejection in mice; assay type: in vivo, mouse; conditions: 20 mg/day from two time-release pellets; unpublished results
Experimental: The time-release pellets are composed of a copolymer which is inert and gradually dissolves and breaks down to a non-toxic substance that remains largely localized during the course of the experiment. […] Two pellets per mouse were implanted to deliver a total dose of 20 mg/day. Therefore, for a 25 g mouse the total dose is 800 mg/kg/day or 280 mg over a 14 day period. Steady-state levels were reached within 12-24 hours and are maintained throughout the entire period based on the manufacturer's specifications.

[6] = time-release pellets, manufacturer's specifications; cited from earlier work
[7] = test system: tumor growth in a mouse model; conditions: Friberg et al. 2002; U.S. Pat. No. 6,482,416; cited from earlier work
[8] = compared to the tumor volume prior to treatment, two weeks

T1 sequence (P14902 whole entry): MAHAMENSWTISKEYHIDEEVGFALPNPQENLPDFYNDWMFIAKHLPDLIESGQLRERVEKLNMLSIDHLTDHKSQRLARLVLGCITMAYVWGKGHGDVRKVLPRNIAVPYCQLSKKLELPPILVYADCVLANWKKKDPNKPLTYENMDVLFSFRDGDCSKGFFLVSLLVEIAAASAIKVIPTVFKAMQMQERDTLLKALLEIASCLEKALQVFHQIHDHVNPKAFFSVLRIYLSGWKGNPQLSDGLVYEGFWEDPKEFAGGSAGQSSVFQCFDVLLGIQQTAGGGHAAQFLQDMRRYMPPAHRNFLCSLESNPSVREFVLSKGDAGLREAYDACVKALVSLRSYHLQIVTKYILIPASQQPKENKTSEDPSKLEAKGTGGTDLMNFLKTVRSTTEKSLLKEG
T3 sequence (P48775 whole entry): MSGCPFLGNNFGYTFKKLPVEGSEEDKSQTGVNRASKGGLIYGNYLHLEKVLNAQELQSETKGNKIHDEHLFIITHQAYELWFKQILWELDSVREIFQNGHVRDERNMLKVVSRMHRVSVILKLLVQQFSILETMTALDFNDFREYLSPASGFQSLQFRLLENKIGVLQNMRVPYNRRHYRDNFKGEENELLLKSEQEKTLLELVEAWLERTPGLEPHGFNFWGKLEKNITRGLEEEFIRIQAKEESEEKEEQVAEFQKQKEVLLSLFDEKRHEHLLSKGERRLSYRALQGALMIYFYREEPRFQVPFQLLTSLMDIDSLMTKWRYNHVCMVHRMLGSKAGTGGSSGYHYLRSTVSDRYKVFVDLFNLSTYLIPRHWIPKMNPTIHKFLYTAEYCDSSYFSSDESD
T2 sequence (P14902 whole entry): as the sequence (P14902 whole entry) above

## CC[C@H](C)[C@@H](CO[C@@H](Cc1ccccc1)C(=O)N[C@@H](CCS(C)(=O)=O)C(=O)OC(C)C)NC[C@@H](N)CS [L-744,832]
[1]
  effect on tumor growth: retarded but did not block tumor growth

## CN1C(=O)C(Cc2c[nH]c3ccccc23)NC1=S (centres unmarked) [MTH-Trp, 3-(N-methyl-thiohydantoin)-indole]
Human IDO [2]; compared with 1MT
  potency of direct IDO enzyme inhibition relative to 1MT: about 3 fold
Human IDO [2]; human IDO, global nonlinear regression of enzyme kinetic data, read-out: Best fit values of Ki
  Ki: 11.4 µM
Intracellular IDO; COS-1 cells expressing IDO, 5 hours, 20 μg/ml tryptophan
  EC50: 12.9 µM
Intracellular IDO; compared with 1MT
  potency against intracellular IDO relative to 1MT: ~20 fold
Human IDO [3]; at a concentration of 250 μM, compared with 1MT
  inhibition of IDO activity relative to 1MT: 2.7 times
Human IDO [3]; cell-based screen
  potency ranking among screened compounds: most potent of these inhibitors
[4]
  selectivity over tryptophan 2,3-dioxygenase (TDO2): significant selectivity

## CCCCc1cc2c(cn1)[nH]c1ccccc12 [3-butyl-β-carboline]
IDO
  potency ranking as IDO inhibitor (literature): most active derivative

## C=CCN1C(=O)C(Cc2c[nH]c3ccccc23)NC1=S (centres unmarked) [N-allyl, 3-(N-allyl-thiohydantoin)-indole]
[4]
  selectivity over tryptophan 2,3-dioxygenase (TDO2): significant selectivity

## Nc1cc2ccccc2cc1C(=O)O [3-amino-2-naphthoic acid]
IDO
  potency ranking as IDO inhibitor (literature): most potent IDO inhibitor

## O=C1C(Cc2c[nH]c3ccccc23)NC(=S)N1c1ccccc1 (centres unmarked) [N-phenyl, 3-(N-phenyl-thiohydantoin)-indole]
[4]
  selectivity over tryptophan 2,3-dioxygenase (TDO2): significant selectivity

## N.N.[Cl][Pt][Cl] [cisplatin]
[1]; [8]
  Maximum percent change in tumor volume: 255.6%
  Mean percent change in tumor volume: 91.35%
  Median percent change in tumor volume: 40%
  Minimum percent change in tumor volume: −26.53%
[1]
  effect on tumor growth: retarded but did not block tumor growth

## Cn1cc(CC(N)C(=O)O)c2ccccc21 (racemic) [1MT, 1-methyl-DL-tryptophan]
[5]
  1MT level in serum: ~100 µM
Allogenic conceptus
  allogenic conceptus rejection: effective at eliciting allogenic conceptus rejection
[6]
  time to steady-state levels: 12 to 24 h
[7]
  effect on tumor growth (literature): only retarded and did not prevent tumor growth

## CC(=O)O[C@H]1C(=O)[C@@]2(C)[C@H]([C@H](OC(=O)c3ccccc3)[C@]3(O)C[C@H](OC(=O)[C@H](O)[C@@H](NC(=O)c4ccccc4)c4ccccc4)C(C)=C1C3(C)C)[C@]1(OC(C)=O)CO[C@@H]1C[C@@H]2O [paclitaxel]
[1]; [8]
  25% Percentile percent change in tumor volume: 40.25%
  75% Percentile percent change in tumor volume: 247.6%
  Maximum percent change in tumor volume: 360.8%
  Mean percent change in tumor volume: 139.4%
  Median percent change in tumor volume: 130.4%
  Minimum percent change in tumor volume: 20%
[1]
  effect on tumor growth: retarded but did not block tumor growth

## c1ccc2c(c1)[nH]c1sncc12 [brassilexin]
IDO; Peterson et al. 1993
  mode of IDO inhibition (literature): noncompetitive inhibitor of IDO
